Assay results as given in patent publication US10765657B2, “Selamectin for treatment of sea lice infestations” (priority 2013, dated 2020).

What was measured:
[1] = system: naïve sea lice, Lepeophtheirus salmonis; assay: Static 24 hour sea lice bioassay, naïve strain; conditions: 24 hours exposure, 0.2% DMSO in seawater, about 10-12° C.
[2] = system: emamectin benzoate resistant sea lice, Lepeophtheirus salmonis; assay: Static 24 hour sea lice bioassay, emamectin benzoate resistant strain; conditions: 24 hours exposure, 0.2% DMSO in seawater, about 10-12° C.
naïve sea lice = assay: Prophylactic efficacy of medicated feed against sea lice challenge in fish; format: in vivo
Description: Experimental diets containing selamectin were administered to 15×2 m diameter tanks of 75 fish by voluntary feeding from Day 0 to Day 6. […] The study evaluated the three concentrations of test material in comparison to a negative control (placebo) and a positive control. Each group was run as triplicate tanks. In each group, sea lice were evaluated using a representative sample of 5 fish per tank on Day −1 (pre-treatment) and 10 fish per tank on days 10 and 30 (4 and 24 days post-treatment).
The prophylactic effect of treatment was determined by removing lice and using further sea lice challenges at intervals. All adult lice were removed from remaining fish following Day 30 and a further sea lice challenge took place on Day 37 (31 days post treatment) and lice counts and tissue samples taken from 10 fish per tank on Day 60 (53 days post treatment).
All adult lice were removed from remaining fish following Day 64 and 12 fish per tank were moved to 15×1 m diameter tanks. On Day 67 (61 days post-treatment) the fish in these 1 m tanks received a further sea lice challenge and on Day 90 (84 days post-treatment) lice counts and tissue samples were taken from 10 fish per tank.
On Day 76 (70 days post-treatment) the fish remaining in 2 m tanks received a further naïve sea lice challenge and on Day 99 (93 days post-treatment) lice counts and tissue samples were taken from 10 fish per tank.

Row | Molecule | Adult females EC50 [1] [ppb] | Adult males EC50 [1] [ppb] | Adult females EC50 [2] [ppb] | Adult males EC50 [2] [ppb] | prophylactic efficacy (naïve sea lice; 40 μg/kg/day oral in feed, Day 0 to Day 6, at 4.4 weeks) [%] | prophylactic efficacy (naïve sea lice; 40 μg/kg/day oral in feed, Day 0 to Day 6, at 10 weeks) [%] | prophylactic efficacy (naïve sea lice; 160 μg/kg/day oral in feed, Day 0 to Day 6, at 4.4 weeks) [%] | prophylactic efficacy (naïve sea lice; 160 μg/kg/day oral in feed, Day 0 to Day 6, out to 10 weeks) [%] | prophylactic efficacy (naïve sea lice; 50 μg/kg/day (commercially licensed value) oral in feed, at 4.4 weeks) [%] | prophylactic efficacy (naïve sea lice; 50 μg/kg/day (commercially licensed value) oral in feed, out to 10 weeks) [%]
1 | CO[C@H]1C[C@H](O[C@@H]2/C(C)=C/C[C@@H]3C[C@@H](C[C@]4(CC[C@H](C)[C@@H](C5CCCCC5)O4)O3)OC(=O)[C@@H]3C=C(C)/C(=N/O)[C@H]4OC/C(=C\C=C\[C@@H]2C)[C@]43O)O[C@@H](C)[C@@H]1O [Selamectin, selamectin] | 10.68 | 3.21 | 16.91 | 6.95 | 99.6 | 68.4 | 100 | 98.5 |  | 
2 | emamectin benzoate | 29 | 112 | 65 | 202 |  |  |  |  | 100 | 72.9
